The values that follow come from US8883785B2, “Certain kynurenine-3-monooxygenase inhibitors, pharmaceutical compositions, and methods of use thereof” (CHDI Foundation, Inc., priority 2010, dated 2014).

In one series the target is T1, KMO mouse enzyme (Mus musculus, UniProt Q91WN4).
T1 construct: KMO enzyme prepared at Evotec from mouse liver (4-6 weeks old) via mitochondria isolation; from tissue; host or cells: mouse liver (4-6 weeks old), mitochondria isolation
The series can be described thus: Mouse KMO enzyme assay: L-kynurenine hydroxylation to 3OH-KYN by LC/MS. The settings on record: compound at 10 μM; KMO from mouse liver mitochondria; read-out: INH.Mouse @ 10 μM. Format: biochemical. On the procedure:
Product is quantified by multiple reaction monitoring (MRM method).
IC50's are calculated using automated fitting algorithm (A+Analysis).

The nature of series [1]: Solubility remark made when LCMS was attempted. The settings on record: solvents for LCMS. Format: physicochemical.

Each structure is given as a SMILES string.

T1 sequence (Q91WN4 whole entry): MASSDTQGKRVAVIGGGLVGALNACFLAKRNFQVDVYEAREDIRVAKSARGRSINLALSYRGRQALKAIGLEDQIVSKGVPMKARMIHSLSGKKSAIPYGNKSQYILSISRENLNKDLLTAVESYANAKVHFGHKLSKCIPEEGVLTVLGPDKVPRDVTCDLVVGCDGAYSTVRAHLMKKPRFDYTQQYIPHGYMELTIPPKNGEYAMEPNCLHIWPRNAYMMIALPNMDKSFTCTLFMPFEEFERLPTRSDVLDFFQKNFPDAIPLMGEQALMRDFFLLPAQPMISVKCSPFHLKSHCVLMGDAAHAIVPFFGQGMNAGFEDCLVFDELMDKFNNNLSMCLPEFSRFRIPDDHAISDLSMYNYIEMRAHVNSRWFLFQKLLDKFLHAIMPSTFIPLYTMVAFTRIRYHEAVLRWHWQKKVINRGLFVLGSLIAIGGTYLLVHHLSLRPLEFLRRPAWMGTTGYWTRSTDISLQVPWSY

For `Clc1ccc(-c2cc(-c3nc4ccccc4[nH]3)ncn2)cc1Cl` [2-[6-(3,4-dichlorophenyl)pyrimidin-4-yl]-1H-benzimidazole], the inhibition at 10 µM on KMO mouse enzyme was found to be 49.7%. Still for that read-out and setting: the same measure for `Clc1cccc(-c2cc(-c3nc4ccccc4o3)ncn2)c1` [2-[6-(3-chlorophenyl)pyrimidin-4-yl]-1,3-benzoxazole]: 54.4%; for `Clc1cccc(-c2cc(-c3nc4ccccc4[nH]3)ncn2)c1` [2-[6-(3-chlorophenyl)pyrimidin-4-yl]-1H-benzimidazole]: 102%.

`O=c1[nH]c(-c2cc(-c3ccc(F)c(F)c3)ncn2)no1` [3-[6-(3,4-Difluoro-phenyl)-pyrimidin-4-yl]-4H-[1,2,4]oxadiazol-5-one]: the inhibition at 10 µM at KMO mouse enzyme amounted to 100%.

As to `S=c1[nH]c(-c2cc(-c3ccc(Cl)c(Cl)c3)ncn2)no1` [3-[6-(3,4-dichlorophenyl)pyrimidin-4-yl]-4H-1,2,4-oxadiazole-5-thione], the inhibition at 10 µM on KMO mouse enzyme was determined as 102%. On the same count and under the same terms, then `O=c1[nH]c(-c2cc(-c3ccc(F)c(Cl)c3)ncn2)no1` [3-[6-(3-Chloro-4-fluoro-phenyl)-pyrimidin-4-yl]-4H-[1,2,4]oxadiazol-5-one], with 100%. The same measure, in the same setting: then `CC(C)Oc1ccc(-c2cc(-c3noc(=O)[nH]3)ncn2)cc1Cl` [3-[6-(3-Chloro-4-isopropoxy-phenyl)-pyrimidin-4-yl]-4H-[1,2,4]oxadiazol-5-one], with 96%; and `Cc1ccc(-c2cc(-c3noc(=O)[nH]3)ncn2)cc1Cl` [3-[6-(3-Chloro-4-methyl-phenyl)-pyrimidin-4-yl]-4H-[1,2,4]oxadiazol-5-one], with 98%.

Turning to `O=c1[nH]c(-c2cc(-c3ccc(OC(F)(F)F)c(Cl)c3)ncn2)no1` [3-[6-(3-Chloro-4-trifluoromethoxy-phenyl)-pyrimidin-4-yl]-4H-[1,2,4]oxadiazol-5-one], the inhibition at 10 µM at KMO mouse enzyme came to 99%. For the compound `Cc1ccc(-c2cc(-c3noc(=O)[nH]3)ncn2)cc1F` [3-[6-(3-Fluoro-4-methyl-phenyl)-pyrimidin-4-yl]-4H-[1,2,4]oxadiazol-5-one], at KMO mouse enzyme, the inhibition at 10 µM amounted to 100%. Same read-out and setting: then `O=c1[nH]c(-c2cc(-c3cccc(Cl)c3)ncn2)no1` [3-[6-(3-chlorophenyl)pyrimidin-4-yl]-4H-1,2,4-oxadiazol-5-one], with 96.3%; and `O=c1[nH]c(-c2cc(-c3cncc(Cl)c3)ncn2)no1` [3-[6-(5-chloropyridin-3-yl)pyrimidin-4-yl]-4H-1,2,4-oxadiazol-5-one], with 65.2%. On the same count and under the same terms, then `Clc1ccc(-c2cc(-c3cc[nH]n3)ncn2)cc1Cl` [4-(3,4-Dichloro-phenyl)-6-(1H-pyrazol-3-yl)-pyrimidine], with 19%; and `Clc1ccc(-c2cc(-c3ncco3)ncn2)cc1Cl` [4-(3,4-Dichloro-phenyl)-6-oxazol-2-yl-pyrimidine], with 93%. For `Clc1ccc(-c2cc(-c3nccs3)ncn2)cc1Cl` [4-(3,4-Dichloro-phenyl)-6-thiazol-2-yl-pyrimidine], the inhibition at 10 µM on KMO mouse enzyme came out at 48%. On the same count and under the same terms, the same measure for `Cc1coc(-c2cc(-c3ccc(Cl)c(Cl)c3)nc(C)n2)n1` [4-(3,4-dichlorophenyl)-2-methyl-6-(4-methyl-1,3-oxazol-2-yl)pyrimidine]: 46.8%; for `Clc1ccc(-c2cc(-c3ncc[nH]3)ncn2)cc1Cl` [4-(3,4-dichlorophenyl)-6-(1H-imidazol-2-yl)pyrimidine]: 99%. On the same count and under the same terms, then `Clc1ccc(-c2cc(C3=NCCN3)ncn2)cc1Cl` [4-(3,4-dichlorophenyl)-6-(4,5-dihydro-1H-imidazol-2-yl)pyrimidine], with 95.5%; and `Cc1coc(-c2cc(-c3ccc(Cl)c(Cl)c3)ncn2)n1` [4-(3,4-dichlorophenyl)-6-(4-methyl-1,3-oxazol-2-yl)pyrimidine], with 101%.

With `Cc1c[nH]c(-c2cc(-c3ccc(Cl)c(Cl)c3)ncn2)n1` [4-(3,4-dichlorophenyl)-6-(4-methyl-1H-imidazol-2-yl)pyrimidine], at KMO mouse enzyme, the inhibition at 10 µM was 92.3%. On the same count and under the same terms, then `Clc1ccc(-c2cc(-c3nnc[nH]3)ncn2)cc1Cl` [4-(3,4-dichlorophenyl)-6-(4H-1,2,4-triazol-3-yl)pyrimidine], with 100%; and `Cc1nc(-c2cc(-c3ccc(Cl)c(Cl)c3)ncn2)no1` [4-(3,4-dichlorophenyl)-6-(5-methyl-1,2,4-oxadiazol-3-yl)pyrimidine], with 51%.

As for `Cc1nnc(-c2cc(-c3ccc(Cl)c(Cl)c3)ncn2)[nH]1` [4-(3,4-dichlorophenyl)-6-(5-methyl-4H-1,2,4-triazol-3-yl)pyrimidine], the inhibition at 10 µM at KMO mouse enzyme stood at 80%. On the same count and under the same terms, then `FC(F)(F)c1ccn(-c2cc(-c3ccc(Cl)c(Cl)c3)ncn2)n1` [4-(3,4-dichlorophenyl)-6-[3-(trifluoromethyl)pyrazol-1-yl]pyrimidine], with 56.7%. The same measure, in the same setting: then `FC(F)(F)c1cn(-c2cc(-c3ccc(Cl)c(Cl)c3)ncn2)cn1` [4-(3,4-dichlorophenyl)-6-[4-(trifluoromethyl)imidazol-1-yl]pyrimidine], with 64.4%; and `FC(F)(F)c1nc(-c2cc(-c3ccc(Cl)c(Cl)c3)ncn2)no1` [4-(3,4-dichlorophenyl)-6-[5-(trifluoromethyl)-1,2,4-oxadiazol-3-yl]pyrimidine], with 87%. On the same count and under the same terms, then `Fc1ccc(-c2cc(-c3nnn[nH]3)ncn2)cc1F` [4-(3,4-difluorophenyl)-6-(1H-tetrazol-5-yl)pyrimidine], with 101%. Take `CC(C)Oc1ccc(-c2cc(-c3nnn[nH]3)ncn2)cc1Cl` [4-(3-Chloro-4-isopropoxy-phenyl)-6-(1H-tetrazol-5-yl)-pyrimidine]: on KMO mouse enzyme, the inhibition at 10 µM was determined as 100%. Regarding `FC(F)(F)Oc1ccc(-c2cc(-c3nnn[nH]3)ncn2)cc1Cl` [4-(3-Chloro-4-trifluoromethoxy-phenyl)-6-(1H-tetrazol-5-yl)-pyrimidine], on KMO mouse enzyme, the inhibition at 10 µM came out at 100%. Still for that read-out and setting: then `Cc1ccc(-c2cc(-c3nnn[nH]3)ncn2)cc1F` [4-(3-Fluoro-4-methyl-phenyl)-6-(1H-tetrazol-5-yl)-pyrimidine], with 100%. Same read-out and setting: then `Fc1ccc(-c2cc(-c3nnn[nH]3)ncn2)cc1Cl` [4-(3-chloro-4-fluorophenyl)-6-(1H-tetrazol-5-yl)pyrimidine], with 103%; and `Cn1nnnc1-c1cc(-c2cccc(Cl)c2)ncn1` [4-(3-chlorophenyl)-6-(1-methyltetrazol-5-yl)pyrimidine], with 65.6%; and `Clc1cccc(-c2cc(-c3nnn[nH]3)ncn2)c1` [4-(3-chlorophenyl)-6-(1H-tetrazol-5-yl)pyrimidine], with 103%. `Cn1nnc(-c2cc(-c3cccc(Cl)c3)ncn2)n1` [4-(3-chlorophenyl)-6-(2-methyltetrazol-5-yl)pyrimidine]: on KMO mouse enzyme, the inhibition at 10 µM was 91.2%. With `Cc1noc(-c2cc(-c3cccc(Cl)c3)ncn2)n1` [4-(3-chlorophenyl)-6-(3-methyl-1,2,4-oxadiazol-5-yl)pyrimidine], the inhibition at 10 µM at KMO mouse enzyme worked out at 91%. The same measure, in the same setting: the same measure for `Cc1coc(-c2cc(-c3cccc(Cl)c3)ncn2)n1` [4-(3-chlorophenyl)-6-(4-methyl-1,3-oxazol-2-yl)pyrimidine]: 101%; for `Clc1cccc(-c2cc(-c3nnc[nH]3)ncn2)c1` [4-(3-chlorophenyl)-6-(4H-1,2,4-triazol-3-yl)pyrimidine]: 102%; for `O=c1[nH]cc(-c2cc(-c3ccc(Cl)c(Cl)c3)ncn2)[nH]1` [4-[6-(3,4-dichlorophenyl)pyrimidin-4-yl]-1,3-dihydroimidazol-2-one]: 105%. With `Cn1[nH]cc(-c2cc(-c3ccc(Cl)c(Cl)c3)ncn2)c1=O` [4-[6-(3,4-dichlorophenyl)pyrimidin-4-yl]-2-methyl-1H-pyrazol-3-one], the inhibition at 10 µM on KMO mouse enzyme was 73.6%. Further, the “solubility” value in series [1] was “Compound is insuffciently souble in any acceptable solvent in order to obtain a meaningful LCMS 1H NMR (500 MHz, DMSO-d6) d ppm 8.88 (1H, s), 8.44 (1H, br.s.), 8.26 (1H, br.s.), 8.19 (1H, d), 8.06 (1H, br.s.), 7.85 (1H, d), 3.45 (3H, s)”. As to `O=c1[nH]nc(-c2cc(-c3ccc(Cl)c(Cl)c3)ncn2)[nH]1` [5-[6-(3,4-dichlorophenyl)pyrimidin-4-yl]-2,4-dihydro-1,2,4-triazol-3-one], the inhibition at 10 µM on KMO mouse enzyme turned out to be 58.1%. In series [1], the “solubility” value is reported as “very unsoluble compound- LCMS unobtainable 1H NMR (250 MHz, DMSO-d6) d ppm 9.27-9.32 (1 H, m), 8.39- 8.47 (2 H, m), 8.17-8.25 (1 H, m), 7.76-7.85 (1 H, m)”. As to `CNC(=O)c1ccc(-c2cc(-c3ccc(Cl)c(Cl)c3)ncn2)nc1` [6-[6-(3,4-dichlorophenyl)pyrimidin-4-yl]-N-methylpyridine-3-carboxamide], the inhibition at 10 µM at KMO mouse enzyme is 39.1%. As for `Clc1cccc(-c2cc(-c3nc4ccc(Cl)cc4[nH]3)ncn2)c1` [6-chloro-2-[6-(3-chlorophenyl)pyrimidin-4-yl]-1H-benzimidazole], the inhibition at 10 µM on KMO mouse enzyme amounted to 39.1%.
